Patent US11174250B2, “Substituted carboxamides as inhibitors of WDR5 protein-protein binding” (PROPELLON THERAPEUTICS INC., priority 2016, dated 2021)
Read-outs that look alike come from different tables or passages of the source.

Tests used:
[1] = molecular target: WDR5 protein (Homo sapiens (Human), UniProt P61964); test: Surface Plasmon Resonance (SPR) assay; assay type: binding; details: SPR; for residence time: τ=1/koff, read-out: Residence Time (t, min)
Description: Exemplary compounds of the application were dissolved in 100% DMSO at 10 mM, assayed fresh, and then stored at −20° C. for repeat studies and other experiments. Full length WDR5 with an N-terminal His tag and C-terminal AviTag (Avidity Inc.) was expressed in E. coli with coexpression of BirA to biotin label the protein in vivo. Purification was via Ni-NTA. The purified WDR5 protein has a molecular weight of 41976 Da.
SPR studies were performed using a Biacore™ T200 instrument (GE Health Sciences Inc.). Biotinylated WDR5 protein (approximately 3000RU) was stably captured to streptavidin coupled SA chips according to the manufacture's protocol (GE Health Sciences Inc.). The running buffer used was HBS-EP (20 mM Hepes pH 7.4, 150 mM NaCl, 3 mM EDTA, 0.05% P-20) plus 5% DMSO with a flow rate of 40p1/min. For SPR analysis, 5 different concentrations of each exemplary compound of the application were sprayed into 96 or 384 well plates using an HP D300 digital dispenser. […] Curve fitting and KD calculations were performed with the Biacore T200 Evaluation software (GE Health Sciences Inc).

[2] = molecular target: MLL1-WRAD2 complex (Homo sapiens (Human), UniProt P61964); test: MLL1-WRAD2 enzyme assay (in vitro methyl transferase assay); assay type: biochemical; details: MLL1-WRAD2 assay; read-out: In vitro MLL1 activity (IC50)
Description: Reaction was initiated with 1 μM 3H-SAM and incubated for 1 hour at 30° C. Reaction mixture was transferred to P81 filter-paper and washed with PBS before detection.

[3] = system: MV4-11 cells; test: Cell proliferation assay (ATPlite); assay type: cell-based; details: Homo sapiens, MV4-11, 120 h; MV-411 cells, five days; read-out: In vitro whole cell potency in MV-411 cells, (IC50)
Description: MV4-11 cells were seeded into a 96-well plate at 1,000 cells/well in 150 μl medium (Alpha-MEM containing 10% FBS, 100 μg/ml Normocin, and 50 μg/ml Gentamycin, Invitrogen). A HP D300 digital dispenser was used to dose cells with DMSO or test compounds across a 10-point range of concentrations (high dose of 10 μM), and cultures were grown in a humidified 5% CO2 incubator at 37° C. After five days, plates were removed from incubator and equilibrated to room temperature. An equal volume of ATPlite assay reagent was added to each well, and samples were processed according to manufacturer's instructions (Perkin Elmer). Luminescent signal was measured using an Envision plate reader equipped with a US-Luminescence detector.

[4] = Table 1, read-out: WDR5 binding affinity (KD)
[5] = Table 2, read-out: WDR5 binding affinity SPR (KD)

SMILES	Kd [1, 4] [nM]	Kd [1, 5] [nM]	residence time [1] [min]	IC50 [2] [nM]	IC50 [3] [nM]
CN1CCN(c2ccc(-c3cc(CNC4CCOCC4)ccc3F)cc2NC(=O)c2c[nH]c(=O)cc2C(F)(F)F)CC1 [Example 37, N-(2′-fluoro-4-(4-methylpiperazin-1-yl)-5′-(((tetrahydro-2H-pyran-4-yl)amino)methyl)-[,1′-biphenyl]-3-yl)-6-oxo-4-(trifluoromethyl)-1,6-dihydropyridine-3-carboxamide]	5	6	4.38	1300	2910
C[C@@H]1CN(c2ccc(-c3nc(N4CCOCC4)ncc3F)cc2NC(=O)c2c[nH]c(=O)cc2C(F)(F)F)C[C@H](C)N1C [Example 125, N-(5-(5-fluoro-2-morpholinopyrimidin-4-yl)-2-((3S,5R)-3,4,5-trimethylpiperazin-1-yl)phenyl)-6-oxo-4-(trifluoromethyl)-1,6-dihydropyridine-3-carboxamide]	3	3.1	11.6	49	87
COCOc1cc(F)c(-c2ccc(N3CCN(C)CC3)c(NC(=O)c3c[nH]c(=O)cc3C(F)(F)F)c2)cc1C(=O)NC(C)(C)CC(C)(C)C [Example 3, N-(2′-fluoro-4′-(methoxymethoxy)-4-(4-methylpiperazin-1-yl)-5′-((2,4,4-trimethylpentan-2-yl)carbamoyl)-[1,1′-biphenyl]-3-yl)-6-oxo-4-(trifluoromethyl)-1,6-dihydropyridine-3-carboxamide]	11	11	6.4	966	3180
CN1CCN(c2ccc(-c3cc(CN4CCNCC4)ccc3F)cc2NC(=O)c2c[nH]c(=O)cc2C(F)(F)F)CC1 [Example 72, N-(2′-fluoro-4-(4-methylpiperazin-1-yl)-5′-(piperazin-1-ylmethyl)-[1,1′-biphenyl]-3-yl)-6-oxo-4-(trifluoromethyl)-1,6-dihydropyridine-3-carboxamide]	5.1	5.1	1.16	5930	> 10000
CN1CCN(c2ccc(-c3cc(C(=O)NC4CCCCC4)ccc3F)cc2NC(=O)c2c[nH]c(=O)cc2C(F)(F)F)CC1 [Example 32, N-(5′-(cyclohexylcarbamoyl)-2′-fluoro-4-(4-methylpiperazin-1-yl)-[1,1′-biphenyl]-3-yl)-6-oxo-4-(trifluoromethyl)-1,6-dihydropyridine-3-carboxamide]	6	6	9.48	332	680
CN1CCN(c2ccc(-c3cc(CN4CCN(CC5CC5)CC4)ccc3F)cc2NC(=O)c2c[nH]c(=O)cc2C(F)(F)F)CC1 [Example 66, N-(5′-((4-(cyclopropylmethyl)piperazin-1-yl)methyl)-2′-fluoro-4-(4-methylpiperazin-1-yl)-[1,1′-biphenyl]-3-yl)-6-oxo-4-(trifluoromethyl)-1,6-dihydropyridine-3-carboxamide]	7.2	7.2	3.79	1100	1130
CN1CCN(c2ccc(-c3ccc(CN4CCOCC4)cc3F)cc2NC(=O)c2c[nH]c(=O)cc2C(F)(F)F)CC1 [Example 38, N-(2′-fluoro-4-(4-methylpiperazin-1-yl)-4′-(morpholinomethyl)-[1,1′-biphenyl]-3-yl)-6-oxo-4-(trifluoromethyl)-1,6-dihydropyridine-3-carboxamide]	8	8	3.42	3990	> 10000
CCN1CCN(c2ccc(-c3cc(CNC4CCCCC4)ccc3F)cc2NC(=O)c2c[nH]c(=O)cc2C(F)(F)F)CC1 [Example 63, N-(5′-((cyclohexylamino)methyl)-4-(4-ethylpiperazin-1-yl)-2′-fluoro-[1,1′-biphenyl]-3-yl)-6-oxo-4-(trifluoromethyl)-1,6-dihydropyridine-3-carboxamide]	> 200	> 200		5630	> 10000
CN1CCN(c2ccc(-c3cc(OC4CCOCC4)ncc3F)cc2NC(=O)c2c[nH]c(=O)cc2C(F)(F)F)CC1 [Example 31, N-(5-(5-fluoro-2-((tetrahydro-2H-pyran-4-yl)oxy)pyridin-4-yl)-2-(4-methylpiperazin-1-yl)phenyl)-6-oxo-4-(trifluoromethyl)-1,6-dihydropyridine-3-carboxamide]	9	9	5.76	1740	1280
C[C@@H]1CN(c2ccc(-c3cc(C(=O)Nc4ccccc4)ccc3F)cc2NC(=O)c2c[nH]c(=O)cc2C(F)(F)F)C[C@H](C)N1C [Example 80, N-(2′-fluoro-5′-(phenylcarbamoyl)-4-((3S,5R)-3,4,5-trimethylpiperazin-1-yl)-[1,1′-biphenyl]-3-yl)-6-oxo-4-(trifluoromethyl)-1,6-dihydropyridine-3-carboxamide]	4	14	2.18	3990	2180
CN1CCN(c2ccc(-c3cc(CN4CCC(N5CCOCC5)CC4)ccc3F)cc2NC(=O)c2c[nH]c(=O)cc2C(F)(F)F)CC1 [Example 70, N-(2′-fluoro-4-(4-methylpiperazin-1-yl)-5′-((4-morpholinopiperidin-1-yl)methyl)-[1,1′-biphenyl]-3-yl)-6-oxo-4-(trifluoromethyl)-1,6-dihydropyridine-3-carboxamide]	4.4	4.4	5.8	1110	1140
CN1CCN(c2ccc(-c3ccnc(N4CCOCC4)c3F)cc2NC(=O)c2c[nH]c(=O)cc2C(F)(F)F)CC1 [Example 39, N-(5-(3-fluoro-2-morpholinopyridin-4-yl)-2-(4-methylpiperazin-1-yl)phenyl)-6-oxo-4-(trifluoromethyl)-1,6-dihydropyridine-3-carboxamide]	28	28	1.46	2510	> 10000
C[C@@H]1CN(c2ccc(-c3cc(CN4CCOCC4)ccc3F)cc2NC(=O)c2c[nH]c(=O)cc2C(F)(F)F)C[C@H](C)N1C [Example 27, N-(2′-fluoro-5′-(morpholinomethyl)-4-((3S,5R)-3,4,5-trimethylpiperazin-1-yl)-[1,1′-biphenyl]-3-yl)-6-oxo-4-(trifluoromethyl)-1,6-dihydropyridine-3-carboxamide]	8	8	5.84	529	737
C[C@@H]1CN(c2ccc(-c3cc(C(=O)NC4CCCCC4)ccc3F)cc2NC(=O)c2c[nH]c(=O)cc2C(F)(F)F)C[C@H](C)N1C [Example 46, N-(5′-(cyclohexylcarbamoyl)-2′-fluoro-4-((3S,5R)-3,4,5-trimethylpiperazin-1-yl)-[1,1′-biphenyl]-3-yl)-6-oxo-4-(trifluoromethyl)-1,6-dihydropyridine-3-carboxamide]	0.95	0.95	74.4	290	118
CN1CCN(c2ccc(-c3cc(CNC4CCCCC4)ccc3F)cc2NC(=O)c2c[nH]c(=O)cc2C(F)(F)F)CC1 [Example 7, N-(5′-((cyclohexylamino)methyl)-2′-fluoro-4-(4-methylpiperazin-1-yl)-[1,1′-biphenyl]-3-yl)-6-oxo-4-(trifluoromethyl)-1,6-dihydropyridine-3-carboxamide]	4	4	7.88	216	410
CN1CCN(c2ccc(-c3cc(CN4C5COCC4C5)ccc3F)cc2NC(=O)c2c[nH]c(=O)cc2C(F)(F)F)CC1 [Example 74, N-(5′-(3-oxa-6-azabicyclo[3.1.1]heptan-6-ylmethyl)-2′-fluoro-4-(4-methylpiperazin-1-yl)-[1,1′-biphenyl]-3-yl)-6-oxo-4-(trifluoromethyl)-1,6-dihydropyridine-3-carboxamide]	4.8	4.8		1750	5430
CN1CCN(c2ccc(-c3cc(OCC4CC4)ncc3F)cc2NC(=O)c2c[nH]c(=O)cc2C(F)(F)F)CC1 [Example 15, N-(5-(2-(cyclopropylmethoxy)-5-fluoropyridin-4-yl)-2-(4-methylpiperazin-1-yl)phenyl)-6-oxo-4-(trifluoromethyl)-1,6-dihydropyridine-3-carboxamide]	9	9	4.04	2250	2260
CN1CCN(c2ccc(-c3cc(CN4CCOC(C)(C)C4)ccc3F)cc2NC(=O)c2c[nH]c(=O)cc2C(F)(F)F)CC1 [Example 77, N-(5′-((2,2-dimethylmorpholino)methyl)-2′-fluoro-4-(4-methylpiperazin-1-yl)-[1,1′-biphenyl]-3-yl)-6-oxo-4-(trifluoromethyl)-1,6-dihydropyridine-3-carboxamide]	4.5	4.5	5.41	907	1280
